# Laboratory results: patent US20140329797A1, “SUBSTITUTED OXADIAZOLYL PYRIDINONES AND OXADIAZOLYL PYRIDAZINONES AS HIF INHIBITORS” (Bayer Intellectual Property GmbH, priority 2011, published 2014)
# Test system: HCT 116 cells transfected with a luciferase reporter under the control of an HIF-responsive sequence
# Experiment: HIF-luciferase assay
# Type: cell-based
# Conditions: Homo sapiens; HCT 116 HIF-luciferase reporter cells, hypoxia chamber (1% O2), 24 h; in some cases means of up to four individual determinations
# Description: B-1. HIF-Luciferase Assay
# HCT 116 cells were transfected in a stable manner with a plasmid which contained a luciferase reporter under the control of an HIF-responsive sequence. These cells were sown in microtitre plates [20000 cells/cavity in RPMI 1640 medium with 10% foetal calf serum (FCS) and 100 μg/ml of hygromycin]. Incubation was carried out overnight under standard conditions (5% CO2, 21% O2, 37° C., moistened). The following morning the cells were incubated with various concentrations of the test substances (0-10 μmol/l) in a hypoxia chamber (1% O2). After 24 h, Bright Glo reagent (Promega, Wisconsin, USA) was added in accordance with the manufacturer's instructions, and after 5 min the luminescence was measured. Cells which were incubated under normoxia served as background controls.
row,Structure (SMILES),IC50 [nM]
1,"CC(C)(O)Cc1cccc(Cn2cc(-c3nc(-c4ccc(C(C)(C)C(F)(F)F)cc4)no3)ccc2=O)c1 [Example 42, 1-[3-(2-Hydroxy-2-methylpropyl)benzyl]-5-{3-[4-(1,1,1-trifluoro-2-methylpropan-2-yl)phenyl]-1,2,4-oxadiazol-5-yl}pyridin-2(1H)-one]",8
2,"O=c1ccc(-c2nc(-c3ccc(OC(F)(F)F)cc3)no2)cn1Cc1cccc(C2(CO)CC2)c1 [Example 43, 1-{3-[1-(Hydroxymethyl)cyclopropyl]benzyl}-5-{3-[4-(trifluoromethoxy)phenyl]-1,2,4-oxadiazol-5-yl}pyridin-2(1H)-one]",10
3,"CC(C)(c1ccc(-c2noc(-c3ccc(=O)n(Cc4cccc(C5(CO)CC5)c4)c3)n2)cc1)C(F)(F)F [Example 44, 1-{3-[1-(Hydroxymethyl)cyclopropyl]benzyl}-5-{3-[4-(1,1,1-trifluoro-2-methylpropan-2-yl)phenyl]-1,2,4-oxadiazol-5-yl}pyridin-2(1H)-one]",15
4,"CN1CCN(c2cc(Cn3cc(-c4nc(-c5ccc(SC(F)(F)F)cc5)no4)ccc3=O)ccn2)CC1 [Example 47, 1-{[2-(4-Methylpiperazin-1-yl)pyridin-4-yl]methyl}-5-(3-{4-[(trifluoromethyl)sulphanyl]phenyl}-1,2,4-oxadiazol-5-yl)pyridin-2(1H)-one]",40
5,"CN1CCN(c2cc(Cn3cc(-c4nc(-c5ccc(C6(C(F)(F)F)CC6)cc5)no4)ccc3=O)ccn2)CC1 [Example 48, 1-{[2-(4-Methylpiperazin-1-yl)pyridin-4-yl]methyl}-5-(3-{4-[1-(trifluoromethyl)cyclopropyl]phenyl}-1,2,4-oxadiazol-5-yl)pyridin-2(1H)-one]",50
6,"CC(=O)N1CCN(c2cc(Cn3cc(-c4nc(-c5ccc(SC(F)(F)F)cc5)no4)ccc3=O)ccn2)CC1 [Example 55, 1-{[2-(4-Acetylpiperazin-1-yl)pyridin-4-yl]methyl}-5-(3-{4-[(trifluoromethyl)sulphanyl]phenyl}-1,2,4-oxadiazol-5-yl)pyridin-2(1H)-one]",20
7,"CNc1ccc(Cn2cc(-c3nc(-c4ccc(OC(F)(F)F)cc4)no3)ccc2=O)cn1 [Example 59, 1-{[6-(Methylamino)pyridin-3-yl]methyl}-5-{3-[4-(trifluoromethoxy)phenyl]-1,2,4-oxadiazol-5-yl}pyridin-2(1H)-one]",12.5
8,"CNc1ccc(Cn2cc(-c3nc(-c4ccc(C(C)(C)C(F)(F)F)cc4)no3)ccc2=O)cn1 [Example 60, 1-{[6-(Methylamino)pyridin-3-yl]methyl}-5-{3-[4-(1,1,1-trifluoro-2-methylpropan-2-yl)phenyl]-1,2,4-oxadiazol-5-yl}pyridin-2(1H)-one]",20
9,"O=c1ccc(-c2nc(-c3ccc(OC(F)(F)F)cc3)no2)cn1Cc1ccc(NCCCO)nc1 [Example 63, 1-({6-[(3-Hydroxypropyl)amino]pyridin-3-yl}methyl)-5-{3-[4-(trifluoromethoxy)phenyl]-1,2,4-oxadiazol-5-yl}pyridin-2(1H)-one]",30
10,"Cc1ccc(Cn2nc(-c3nc(-c4ccc(OC(F)(F)F)cc4)no3)ccc2=O)cc1 [Example 65, 2-(4-Methylbenzyl)-6-{3-[4-(trifluoromethoxy)phenyl]-1,2,4-oxadiazol-5-yl}pyridazin-3(2H)-one]",200
11,"CNC(=O)c1cccc(Cn2nc(-c3nc(-c4ccc(C(C)(C)C(F)(F)F)cc4)no3)ccc2=O)c1 [Example 70, N-Methyl-3-{[6-oxo-3-{3-[4-(1,1,1-trifluoro-2-methylpropan-2-yl)phenyl]-1,2,4-oxadiazol-5-yl}pyridazin-1(6H)-yl]methyl}benzamide]",60
12,"CC(C)(c1ccc(-c2noc(-c3ccc(=O)n(Cc4cccc(C(=O)NCCCO)c4)n3)n2)cc1)C(F)(F)F [Example 73, N-(3-Hydroxypropyl)-3-{[6-oxo-3-{3-[4-(1,1,1-trifluoro-2-methylpropan-2-yl)phenyl]-1,2,4-oxadiazol-5-yl}pyridazin-1(6H)-yl]methyl}benzamide]",50
13,"O=C(c1cccc(Cn2nc(-c3nc(-c4ccc(OC(F)(F)F)cc4)no3)ccc2=O)c1)N1CCC1 [Example 74, 2-[3-(Azetidin-1-ylcarbonyl)benzyl]-6-{3-[4-(trifluoromethoxy)phenyl]-1,2,4-oxadiazol-5-yl}pyridazin-3(2H)-one]",10
14,"O=C(c1cccc(Cn2nc(-c3nc(-c4ccc(OC(F)(F)F)cc4)no3)ccc2=O)c1)N1CC(O)C1 [Example 76, 2-{3-[(3-Hydroxyazetidin-1-yl)carbonyl]benzyl}-6-{3-[4-(trifluoromethoxy)phenyl]-1,2,4-oxadiazol-5-yl}pyridazin-3(2H)-one]",20
15,"O=C(c1cccc(Cn2nc(-c3nc(-c4ccc(OC(F)(F)F)cc4)no3)ccc2=O)c1)N1CCC(O)CC1 [Example 82, 2-{3-[(4-Hydroxypiperidin-1-yl)carbonyl]benzyl}-6-{3-[4-(trifluoromethoxy)phenyl]-1,2,4-oxadiazol-5-yl}pyridazin-3(2H)-one]",15
16,"O=C(c1cccc(Cn2nc(-c3nc(-c4ccc(OC(F)(F)F)cc4)no3)ccc2=O)c1)N1CCOCC1 [Example 84, 2-[3-(Morpholin-4-ylcarbonyl)benzyl]-6-{3-[4-(trifluoromethoxy)phenyl]-1,2,4-oxadiazol-5-yl}pyridazin-3(2H)-one]",20
17,"CN1CCN(C(=O)c2cccc(Cn3nc(-c4nc(-c5ccc(C(C)(C)C(F)(F)F)cc5)no4)ccc3=O)c2)CC1 [Example 86, 2-{3-[(4-Methylpiperazin-1-yl)carbonyl]benzyl}-6-{3-[4-(1,1,1-trifluoro-2-methylpropan-2-yl)phenyl]-1,2,4-oxadiazol-5-yl}pyridazin-3(2H)-one]",40

# The next compounds have a lower IC50 than those just listed; values first:
row,IC50 [nM],Structure (SMILES)
1,5,"CC(C)(O)Cc1cccc(Cn2cc(-c3nc(-c4ccc(OC(F)(F)F)cc4)no3)ccc2=O)c1 [Example 41, 1-[3-(2-Hydroxy-2-methylpropyl)benzyl]-5-{3-[4-(trifluoromethoxy)phenyl]-1,2,4-oxadiazol-5-yl}pyridin-2(1H)-one]"
2,5,"N#CC1CCN(c2cc(Cn3cc(-c4nc(-c5ccc(OC(F)(F)F)cc5)no4)ccc3=O)ccn2)CC1 [Example 45, 1-(4-{[2-oxo-5-{3-[4-(trifluoromethoxy)phenyl]-1,2,4-oxadiazol-5-yl}pyridin-1(2H)-yl]methyl}pyridin-2-yl)piperidine-4-carbonitrile]"
3,3,"O=c1ccc(-c2nc(-c3ccc(OC(F)(F)F)cc3)no2)cn1Cc1ccnc(N2CCN(CC(F)(F)F)CC2)c1 [Example 49, 1-({2-[4-(2,2,2-Trifluoroethyl)piperazin-1-yl]pyridin-4-yl}methyl)-5-{3-[4-(trifluoromethoxy)phenyl]-1,2,4-oxadiazol-5-yl}pyridin-2(1H)-one]"
4,2,"O=c1ccc(-c2nc(-c3ccc(OC(F)(F)F)cc3)no2)cn1Cc1ccnc(N2CCN(C3CC3)CC2)c1 [Example 51, 1-{[2-(4-Cyclopropylpiperazin-1-yl)pyridin-4-yl]methyl}-5-{3-[4-(trifluoromethoxy)phenyl]-1,2,4-oxadiazol-5-yl}pyridin-2(1H)-one]"
5,5,"O=c1ccc(-c2nc(-c3ccc(SC(F)(F)F)cc3)no2)cn1Cc1ccnc(N2CCN(C3CC3)CC2)c1 [Example 52, 1-{[2-(4-Cyclopropylpiperazin-1-yl)pyridin-4-yl]methyl}-5-(3-{4-[(trifluoromethyl)sulphanyl]phenyl}-1,2,4-oxadiazol-5-yl)pyridin-2(1H)-one]"
6,4,"CC(C)(c1ccc(-c2noc(-c3ccc(=O)n(Cc4ccnc(N5CCN(C6CC6)CC5)c4)c3)n2)cc1)C(F)(F)F [Example 53, 1-{[2-(4-Cyclopropylpiperazin-1-yl)pyridin-4-yl]methyl}-5-{3-[4-(1,1,1-trifluoro-2-methylpropan-2-yl)phenyl]-1,2,4-oxadiazol-5-yl}pyridin-2(1H)-one]"
7,4,"O=c1ccc(-c2nc(-c3ccc(C4(C(F)(F)F)CC4)cc3)no2)cn1Cc1ccnc(N2CCN(C3CC3)CC2)c1 [Example 54, 1-{[2-(4-Cyclopropylpiperazin-1-yl)pyridin-4-yl]methyl}-5-(3-{4-[1-(trifluoromethyl)cyclopropyl]phenyl}-1,2,4-oxadiazol-5-yl)pyridin-2(1H)-one]"
8,1.5,"N#CC1CCN(c2cccc(Cn3nc(-c4nc(-c5ccc(OC(F)(F)F)cc5)no4)ccc3=O)c2)CC1 [Example 66, 1-(3-{[6-oxo-3-{3-[4-(trifluoromethoxy)phenyl]-1,2,4-oxadiazol-5-yl}pyridazin-1(6H)-yl]methyl}phenyl)piperidine-4-carbonitrile]"
9,5,"O=C(c1cccc(Cn2nc(-c3nc(-c4ccc(OC(F)(F)F)cc4)no3)ccc2=O)c1)N1CCCC1 [Example 78, 2-[3-(Pyrrolidin-1-ylcarbonyl)benzyl]-6-{3-[4-(trifluoromethoxy)phenyl]-1,2,4-oxadiazol-5-yl}pyridazin-3(2H)-one]"
10,5,"O=C(c1cccc(Cn2nc(-c3nc(-c4ccc(OC(F)(F)F)cc4)no3)ccc2=O)c1)N1CCCO1 [Example 80, 2-[3-(1,2-Oxazolidin-2-ylcarbonyl)benzyl]-6-{3-[4-(trifluoromethoxy)phenyl]-1,2,4-oxadiazol-5-yl}pyridazin-3(2H)-one]"
11,5,"O=C(c1cccc(Cn2nc(-c3nc(-c4ccc(OC(F)(F)F)cc4)no3)ccc2=O)c1)N1CCN(C2CC2)CC1 [Example 87, 2-{3-[(4-Cyclopropylpiperazin-1-yl)carbonyl]benzyl}-6-{3-[4-(trifluoromethoxy)phenyl]-1,2,4-oxadiazol-5-yl}pyridazin-3(2H)-one]"
